Assay results as given in patent US20240190890A1, “MK2 INHIBITORS AND USES THEREOF” (Bristol-Myers Squibb Company, priority 2022, published 2024).

Biological target: p38a activated, mitogen-activated protein kinase-activated protein kinase 2 (MAPKAP-K2 or MK2) enzyme (Homo sapiens (Human), UniProt P49137)
Experiment: MK2 Omnia continuous-read kinase assay for compound potency
Assay type: biochemical
Settings: [MK-2]=0.4 nM, [ATP]=10 μM, [ST3-Sox]=10 μM; room temperature
Outline: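 Continuous Sox-peptide fluorescence read (ex360/em485) every 71 s over 2 h at room temperature. Reactions: 10 μM each of ATP (at apparent Km) and S/T3-Sox, 0.4 nM p38a-activated MK2, pH 7.5 Tris/MgCl2 buffer. Initial rates yield % inhibition and IC50; single-exponential kobs values yield apparent kinact/KI.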

Chain of p38a activated, mitogen-activated protein kinase-activated protein kinase 2 (MAPKAP-K2 or MK2) enzyme (P49137 whole entry): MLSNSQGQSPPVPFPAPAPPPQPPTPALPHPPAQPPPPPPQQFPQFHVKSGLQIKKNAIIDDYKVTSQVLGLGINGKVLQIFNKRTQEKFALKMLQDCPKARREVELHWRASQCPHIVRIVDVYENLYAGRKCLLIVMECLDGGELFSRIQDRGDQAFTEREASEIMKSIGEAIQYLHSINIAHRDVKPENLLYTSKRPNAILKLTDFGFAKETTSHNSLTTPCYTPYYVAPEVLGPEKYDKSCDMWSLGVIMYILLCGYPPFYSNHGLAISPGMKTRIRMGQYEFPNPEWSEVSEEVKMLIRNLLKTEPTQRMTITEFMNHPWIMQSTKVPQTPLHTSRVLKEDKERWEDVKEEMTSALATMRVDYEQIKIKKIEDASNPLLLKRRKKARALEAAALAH

| SMILES | IC50 [nM] |
| --- | --- |
| C[C@@H]1CNc2c(sc3ccc4nc(-c5cc(Cl)nnc5OCCN5CCCC5)ccc4c23)C(=O)N1 [Example I-119, (R)-3-(6-chloro-3-(2-(pyrrolidin-1-yl)ethoxy)pyridazin-4-yl)-10-methyl-9,10,11,12-tetrahydro-8H-[1,4]diazepino[5′,6′:4,5]thieno[3,2-f]quinolin-8-one] | 981 |
| C=Cc1cc(-c2ccc3c(ccc4sc5c(c43)NC[C@@H](C)NC5=O)n2)c(CN2CCC(OC)CC2)cn1 [Example I-155, (R)-3-(5-((4-methoxypiperidin-1-yl)methyl)-2-vinylpyridin-4-yl)-10-methyl-9,10,11,12-tetrahydro-8H-[1,4]diazepino[5′,6′:4,5]thieno[3,2-f]quinolin-8-one] | 95 |
| C#Cc1cc(-c2ccc3c(ccc4sc5c(c43)NC[C@@H](C)NC5=O)n2)c(F)cn1 [Example I-71, (R)-3-(2-ethynyl-5-fluoropyridin-4-yl)-10-methyl-9,10,11,12-tetrahydro-8H-[1,4]diazepino[5′,6′:4,5]thieno[3,2-f]quinolin-8-one] | 39 |
| C#Cc1cc(-c2ccc3c(ccc4sc5c(c43)NC[C@@H](C)NC5=O)n2)cc(CN2CCC(F)(F)CC2)n1 [Example I-124, (R)-3-(2-((4,4-difluoropiperidin-1-yl)methyl)-6-ethynylpyridin-4-yl)-10-methyl-9,10,11,12-tetrahydro-8H-[1,4]diazepino[5′,6′:4,5]thieno[3,2-f]quinolin-8-one] | 125 |
| C=Cc1cc(-c2ccc3c(ccc4sc5c(c43)NC[C@@H](C)NC5=O)n2)c(CO)cn1 [Example I-252, (R)-3-(5-(hydroxymethyl)-2-vinylpyridin-4-yl)-10-methyl-9,10,11,12-tetrahydro-8H-[1,4]diazepino[5′,6′:4,5]thieno[3,2-f]quinolin-8-one] | 5 |
| C=Cc1cc(-c2ccc3c(ccc4sc5c(c43)NC[C@@H](C)NC5=O)n2)c(C)cn1 [Example I-109, (R)-10-methyl-3-(5-methyl-2-vinylpyridin-4-yl)-9,10,11,12-tetrahydro-8H-[1,4]diazepino[5′,6′:4,5]thieno[3,2-f]quinolin-8-one] | 4 |
| COc1nnc(/C=C/CN(C)C)cc1-c1ccc2c(ccc3sc4c(c32)NC[C@@H](C)NC4=O)n1 [Example I-145, (R,E)-3-(6-(3-(dimethylamino)prop-1-en-1-yl)-3-methoxypyridazin-4-yl)-10-methyl-9,10,11,12-tetrahydro-8H-[1,4]diazepino[5′,6′:4,5]thieno[3,2-f]quinolin-8-one] | 273 |
| C=Cc1cc(-c2ccc3c(ccc4sc5c(c43)NC[C@@H](C)NC5=O)n2)cc(CN2CCC(OC)CC2)n1 [Example I-121, (R)-3-(2-((4-methoxypiperidin-1-yl)methyl)-6-vinylpyridin-4-yl)-10-methyl-9,10,11,12-tetrahydro-8H-[1,4]diazepino[5′,6′:4,5]thieno[3,2-f]quinolin-8-one] | 11 |
| C=Cc1nn(C)nc1-c1ccc2c(ccc3sc4c(c32)NC[C@@H](C)NC4=O)n1 [Example I-232, (R)-10-methyl-3-(2-methyl-5-vinyl-2H-1,2,3-triazol-4-yl)-9,10,11,12-tetrahydro-8H-[1,4]diazepino[5′,6′:4,5]thieno[3,2-f]quinolin-8-one] | 77 |
| C[C@@H]1CNc2c(sc3ccc4nc(-n5cnc(Cl)n5)ccc4c23)C(=O)N1 [Example I-210, (R)-3-(3-chloro-1H-1,2,4-triazol-1-yl)-10-methyl-9,10,11,12-tetrahydro-8H-[1,4]diazepino[5′,6′:4,5]thieno[3,2-f]quinolin-8-one] | 91 |
| [2H]c1c(C=C)ncc(C([2H])([2H])[2H])c1-c1ccc2c(ccc3sc4c(c32)NC[C@@H](C)NC4=O)n1 [Example I-249, (R)-10-methyl-3-(5-(methyl-d3)-2-vinylpyridin-4-yl-3-d)-9,10,11,12-tetrahydro-8H-[1,4]diazepino[5′,6′:4,5]thieno[3,2-f]quinolin-8-one] | 4 |
| [2H]C([2H])([2H])c1cnc(C=C)cc1-c1ccc2c(ccc3sc4c(c32)NC[C@@H](C)NC4=O)n1 [Example I-142, (R)-10-methyl-3-(5-(methyl-d3)-2-vinylpyridin-4-yl)-9,10,11,12-tetrahydro-8H-[1,4]diazepino[5′,6′:4,5]thieno[3,2-f]quinolin-8-one] | 9 |
| C=Cc1ncc(COC2COC2)c(-c2ccc3c(ccc4sc5c(c43)NC[C@@H](C)NC5=O)n2)n1 [Example I-21, (R)-10-methyl-3-(5-((oxetan-3-yloxy)methyl)-2-vinylpyrimidin-4-yl)-9,10,11,12-tetrahydro-8H-[1,4]diazepino[5′,6′:4,5]thieno[3,2-f]quinolin-8-one] | 24 |
| C#Cc1nc(C#CC(C)(C)N)cc(-c2ccc3c(ccc4sc5c(c43)NC[C@@H](C)NC5=O)n2)n1 [Example I-65, (R)-3-(6-(3-amino-3-methylbut-1-yn-1-yl)-2-ethynylpyrimidin-4-yl)-10-methyl-9,10,11,12-tetrahydro-8H-[1,4]diazepino[5′,6′:4,5]thieno[3,2-f]quinolin-8-one] | 132 |
| C[C@@H]1CNc2c(sc3ccc4nc(-c5cc(Cl)nc(COC6CCNCC6)n5)ccc4c23)C(=O)N1 [Example I-14, (R)-3-(6-chloro-2-((piperidin-4-yloxy)methyl)pyrimidin-4-yl)-10-methyl-9,10,11,12-tetrahydro-8H-[1,4]diazepino[5′,6′:4,5]thieno[3,2-f]quinolin-8-one] | 12 |
| C=Cc1cc(-c2ccc3c(ccc4sc5c(c43)NC[C@@H](C)NC5=O)n2)cc(N2CCC(F)CC2)n1 [Example I-239, (R)-3-(2-(4-fluoropiperidin-1-yl)-6-vinylpyridin-4-yl)-10-methyl-9,10,11,12-tetrahydro-8H-[1,4]diazepino[5′,6′:4,5]thieno[3,2-f]quinolin-8-one] | 161 |
| C=Cc1cc(-c2ccc3c(ccc4sc5c(c43)NC[C@@H](C)NC5=O)n2)cc(N2CCC(F)(F)CC2)n1 [Example I-168, (R)-3-(2-(4,4-difluoropiperidin-1-yl)-6-vinylpyridin-4-yl)-10-methyl-9,10,11,12-tetrahydro-8H-[1,4]diazepino[5′,6′:4,5]thieno[3,2-f]quinolin-8-one] | 260 |
| C[C@@H]1CNc2c(sc3ccc4nc(-c5cc(/C=C/CN(C)C)ncn5)ccc4c23)C(=O)N1 [Example I-115, (R,E)-3-(6-(3-(dimethylamino)prop-1-en-1-yl)pyrimidin-4-yl)-10-methyl-9,10,11,12-tetrahydro-8H-[1,4]diazepino[5′,6′:4,5]thieno[3,2-f]quinolin-8-one] | 37 |
| C=Cc1cnn(-c2ccc3c(ccc4sc5c(c43)NC[C@@H](C)NC5=O)n2)c1 [Example I-148, (R)-10-methyl-3-(4-vinyl-1H-pyrazol-1-yl)-9,10,11,12-tetrahydro-8H-[1,4]diazepino[5′,6′:4,5]thieno[3,2-f]quinolin-8-one] | 101 |
| C=Cc1cc(-c2ccc3c(ccc4sc5c(c43)NC[C@@H](C)NC5=O)n2)cc(N(C)CCOC)n1 [Example I-237, (R)-3-(2-((2-methoxyethyl)(methyl)amino)-6-vinylpyridin-4-yl)-10-methyl-9,10,11,12-tetrahydro-8H-[1,4]diazepino[5′,6′:4,5]thieno[3,2-f]quinolin-8-one] | 10 |
